Measurements as given in patent US20250049800A1, “VCP/p97 INHIBITOR FOR THE TREATMENT OF CANCER” (CASI Pharmaceuticals, Inc., priority 2021, published 2025).
Where two headings read alike, the source gives them in different places.

Columns and labels:
HL-60 cell line = assay: Cell Titer-Glo viability, fixed agent + dose response agent combinations; type: cell-based, human; conditions: Homo sapiens
Experimental: (§1) The additional therapeutic agents for this example were azacitidine (Cayman Chemical Cat No. 11164), decitabine (Sigma Cat No. A3656) and venetoclax (InvivoChem Cat. No. V0001).
(§2) Cell Culture: Three human acute myeloid leukemia tumor cell lines were used in this study: HL60, MV4;11 and MOLM-13. HL60 and MV4;11 were grown in IMDM base media with 20% and 10% FBS, respectively. MOLM-13 was grown in RPMI 1640 base media with 20% FBS. All culture media contained 2 mM glutamine, 100 units/mL sodium penicillin G, […] gentamicin, and 100 µg/mL streptomycin sulfate. The tumor cells were cultured in tissue culture flasks in a humidified incubator at 37° C., in an atmosphere of 5% CO2 and 95% air. Assay: Tumor cells were seeded in duplicate in a volume of 100 µL/well of media into 96-well micro-culture plates at initial densities low enough to allow for several population doublings (typically three to five) during the indicated incubation period. After a 24 hour incubation, test agents were added to each well. After 72 hours of culture with test articles, cell viability was determined using the Cell Titer-Glo® (Promega G7571) assay. Briefly, Cell Titer-Glo® (Promega G7571) reagents were equilibrated at room temperature for 30 minutes; 100 μL per well was added at endpoint (72 hours). Plates were gently shaken for two minutes and then incubated at room temperature for ten minutes prior to reading luminescence on the BMG Clariostar Plus microplate reader.
(§3) An IC50 ratio for each combination was calculated from the ratio of the combination IC50 as compared to the applicable no fixed agent (vehicle) control.

MOML-13 cell line = assay: as above; type: cell-based, human; conditions: Homo sapiens
Experimental: as §1, §2, §3

MV4; 11 cell line = assay: as above; type: cell-based, human; conditions: Homo sapiens
Experimental: as §1, §2, §3

[1] = test system: MOML-13 (Human Acute Myeloid Leukemia cell line); assay: Combination Index (Chou-Talalay) of Compound 1 with second therapeutic agents; type: cell-based; conditions: for effect of the combination with Compound 1: MOML-13 (BRCA2 mutant, FLT3 heterozygous); for Combination Index: agent in combination with Compound 1, CI scores across all 3 ratios averaged, MOML-13
Experimental: (§4) Each combination was tested in 3 cell lines: MOML-13 (Human Acute Myeloid Leukemia cell line; Addex Bio), MV-4-11 (Human B Myelomoncytic Leukemia cell line; ATCC), and OCI-AML-3 (Human Acute Myeloid Leukemia cell line).
(§5) Within this range, 20 dose levels were tested for each combination, with each response determined in duplicate. […] The actual drug concentrations in the ratios were determined from the IC50 values obtained for each individual drug.
(§6) Raw data was analyzed using Graph Pad Prism, four parameter logistic fits, and Chou-Talalay drug combination analyses. […] For data points with Fe<0, the fractional effect was set to 0.001. Data points with Fe>0.99 or <0.01 were omitted from the Chou-Talalay analysis because the Chou-Talalay analysis fits data to the Log of the fractional effect, with equal weight applied across the range of effect, such that the high and low end of the dose response, very small changes in effect within the range of experimental error erroneously skew the outcome of the model fit.
(§7) A Combination Index (CI) vs Fractional Effect plot showing the actual combination index plotted vs Fractional effect value was plotted for each combination dose. In this analysis, CI=1 represents additive activity, CI>1 represent less than additive activity (often referred to as antagonism) and CI<1=synergistic activity (better than additive).

[2] = test system: MV-4-11 (Human B Myelomoncytic Leukemia cell line); assay: as above; type: cell-based; conditions: for effect of the combination with Compound 1: MV-4-11 (FLT3 homozygous mutant); for Combination Index: agent in combination with Compound 1, CI scores across all 3 ratios averaged, MV-4-11
Experimental: as §4, §5, §6, §7

[3] = test system: OCI-AML-3 (Human Acute Myeloid Leukemia cell line); assay: as above; type: cell-based; conditions: for effect of the combination with Compound 1: OCI-AML-3 (FLT3 wildtype); for Combination Index: agent in combination with Compound 1, CI scores across all 3 ratios averaged, OCI-AML-3
Experimental: as §4, §5, §6, §7

[4] = CB-5083 tested previously in subjects; cited from earlier work
Capan-1 (Pancreas) = assay: Cell Titer-Glo viability: single agent IC50 and Compound 1 + PARP inhibitor matrix (Bliss); type: cell-based; conditions: for IC50: single agent, read-out: Absolute IC50; for # in matrix with Bliss >5: 6×6 matrix of PARP inhibitor with Compound 1
Experimental: (§8) The PARP inhibitors used for the study were talazoparib, olaparib and niraparib. […] was used as a reference control. […] For each drug agent on its own, IC50 values in each cell line were determined. Interactions of the combinations of Compound 1 and each PARP inhibitor was assessed as follows: […] Cisplatin and culture media were used as positive and negative control, respectively. The combination activities were assessed using CrownSyn software to determine synergy scores by Bliss Independence and Loewe additivity methods. […] Synergy scores calculated by both Bliss independence model and Loewe additivity model (see Greco, […]., Poch, G., Suhnel, J., Kundi, M., & Bodeker, W. (1992). Consensus on concepts and terminology for combined-action assessment: the […] agreement. […] Without being bound by theory, the Bliss independence model is often applied to asses synergy for non-interacting drugs that elicit their responses independently, e.g., by targeting separate pathways, whereas the Loewe additivity model may be more compatible where both drugs have similar modes of action on the same targets or pathways.

DU4475 (Breast) = assay: as above; type: cell-based; conditions: for IC50: single agent, read-out: Absolute IC50; for # in matrix with Bliss >5: 6×6 matrix of PARP inhibitor with Compound 1
Experimental: as §8

[5] = test system: DoTc2 4510 (Uterus/Cervix); assay: as above; type: cell-based; conditions: for IC50: single agent, read-out: Absolute IC50; for # in matrix with Bliss >5: 6×6 matrix of PARP inhibitor with Compound 1
Experimental: as §8

HCC1395 (Breast) = assay: as above; type: cell-based; conditions: for IC50: single agent, read-out: Absolute IC50; for # in matrix with Bliss >5: 6×6 matrix of PARP inhibitor with Compound 1
Experimental: as §8

HCC1806 (Breast) = assay: as above; type: cell-based; conditions: for IC50: single agent, read-out: Absolute IC50; for # in matrix with Bliss >5: 6×6 matrix of PARP inhibitor with Compound 1
Experimental: as §8

HCC1937 (Breast) = assay: as above; type: cell-based; conditions: for IC50: single agent, read-out: Absolute IC50; for # in matrix with Bliss >5: 6×6 matrix of PARP inhibitor with Compound 1
Experimental: as §8

IGR-OV1 (Ovary) = assay: as above; type: cell-based; conditions: for IC50: single agent, read-out: Absolute IC50; for # in matrix with Bliss >5: 6×6 matrix of PARP inhibitor with Compound 1
Experimental: as §8

MX-1 (Breast) = assay: as above; type: cell-based; conditions: for IC50: single agent, read-out: Absolute IC50; for # in matrix with Bliss >5: 6×6 matrix of PARP inhibitor with Compound 1
Experimental: as §8

OVCAR-8 (Ovary) = assay: as above; type: cell-based; conditions: for IC50: single agent, read-out: Absolute IC50; for # in matrix with Bliss >5: 6×6 matrix of PARP inhibitor with Compound 1
Experimental: as §8

SK-OV-3 (Ovary) = assay: as above; type: cell-based; conditions: for IC50: single agent, read-out: Absolute IC50; for # in matrix with Bliss >5: 6×6 matrix of PARP inhibitor with Compound 1
Experimental: as §8

Nc1ncn([C@H]2C[C@H](O)[C@@H](CO)O2)c(=O)n1 [Decitabine, decitabine, reference compound]
IC50 (HL-60 cell line; HL-60): 4.03 µM
IC50 (HL-60 cell line; HL-60, 72 h): 5.29 µM
IC50 (MOML-13 cell line): 0.0065 µM
IC50 (MOML-13 cell line; 72 h): 0.0108 µM
IC50 (MV4; 11 cell line; MV4-11): 0.0071 µM
IC50 (MV4; 11 cell line; MV4-11, 72 h): 0.39 µM

Nc1ccn([C@@H]2O[C@H](CO)[C@@H](O)[C@@H]2O)c(=O)n1 [cytarabine]
effect of the combination with Compound 1 [1]: additive effects
effect of the combination with Compound 1 [2]: additive effects
effect of the combination with Compound 1 [3]: additive effects

CC(C)C[C@H](NC(=O)CNC(=O)c1cc(Cl)ccc1Cl)B(O)O [Ixazomib]
effect of the combination with Compound 1 [1]: antagonistic
Combination Index [1]: 1.413
effect of the combination with Compound 1 [2]: antagonistic
Combination Index [2]: 1.546
effect of the combination with Compound 1 [3]: antagonistic
Combination Index [3]: 1.438

CC1(C)CCC(CN2CCN(c3ccc(C(=O)NS(=O)(=O)c4ccc(NCC5CCOCC5)c([N+](=O)[O-])c4)c(Oc4cnc5[nH]ccc5c4)c3)CC2)=C(c2ccc(Cl)cc2)C1 [Venetoclax]
Combination Index [1]: 0.730

Cc1cc2c(C(N)=O)cccc2n1-c1nc2c(c(NCc3ccccc3)n1)COCC2 [CB-5083, 1-[7,8-dihydro-4-[(phenylmethyl)amino]-5H-pyrano[4,3-d]pyrimidin-2-yl]-2-methyl-1H-indole-4-carboxamide]
visual adverse events [4]: symptoms of visual impairment or other visual adverse events

Nc1ncn([C@@H]2O[C@H](CO)[C@@H](O)[C@H]2O)c(=O)n1 [Azacitidine, azacitidine, reference compound]
IC50 (HL-60 cell line; HL-60, HL-60, fixed agent Compound 1 - 210 nM, read-out: IC50): 1.96 µM
IC50 (MOML-13 cell line; MOML-13, fixed agent Compound 1 - 75 nM, read-out: IC50): 0.125 µM
IC50 (MV4; 11 cell line; MV4-11, MV4, 11, fixed agent Compound 1 - 185 nM, read-out: IC50): 0.11 µM

COCC1(CO)C(=O)C2CCN1CC2 (stereo not shown) [APR-246]
Combination Index [1]: 1.228
Combination Index [2]: 1.285
Combination Index [3]: 1.279

N.N.[Cl][Pt][Cl] [Cisplatin]
IC50 (Capan-1 (Pancreas)): 1.68 µM
IC50 (DU4475 (Breast)): 1.6 µM
IC50 [5]: 10.2 µM
IC50 (HCC1395 (Breast)): 4.75 µM
IC50 (HCC1806 (Breast)): 3.24 µM
IC50 (HCC1937 (Breast)): 12.1 µM
IC50 (IGR-OV1 (Ovary)): 1.45 µM
IC50 (MX-1 (Breast)): 6.6 µM
IC50 (OVCAR-8 (Ovary)): 9.22 µM
IC50 (SK-OV-3 (Ovary)): 8.3 µM

CN(C)CCCOc1ccc(-c2ccc3ncc4c(c3c2)n(C2CCOCC2)c(=O)n4C)cn1 [AZDO156]
Combination Index [1]: 1.293
Combination Index [2]: 1.122
Combination Index [3]: 1.159

Cn1ncnc1[C@H]1c2n[nH]c(=O)c3cc(F)cc(c23)N[C@@H]1c1ccc(F)cc1 [Talazoparib]
effect of the combination with Compound 1 [1]: strong synergy
# in matrix with Bliss >5 (Capan-1 (Pancreas)): 4/36
IC50 (Capan-1 (Pancreas); Homo sapiens, 72 h): 2.64 µM
# in matrix with Bliss >5 (DU4475 (Breast)): 15/36
IC50 (DU4475 (Breast); Homo sapiens, DU-4475, 72 h): 0.03 µM
# in matrix with Bliss >5 [5]: 5/36
# in matrix with Bliss >5 (HCC1395 (Breast)): 0/36
IC50 (HCC1395 (Breast); Homo sapiens, 72 h): > 5 µM
# in matrix with Bliss >5 (HCC1806 (Breast)): 3/36
IC50 (HCC1806 (Breast); Homo sapiens, 72 h): > 5 µM
# in matrix with Bliss >5 (HCC1937 (Breast)): 8/36
IC50 (HCC1937 (Breast); Homo sapiens): > 5 µM
# in matrix with Bliss >5 (IGR-OV1 (Ovary)): 7/36
# in matrix with Bliss >5 (MX-1 (Breast)): 0/36
# in matrix with Bliss >5 (OVCAR-8 (Ovary)): 6/36
IC50 (OVCAR-8 (Ovary); Homo sapiens, 72 h): > 5 µM
# in matrix with Bliss >5 (SK-OV-3 (Ovary)): 13/36
IC50 (SK-OV-3 (Ovary); Homo sapiens): > 5 µM

NC(=O)c1cccc2cn(-c3ccc([C@@H]4CCCNC4)cc3)nc12 [Niraparib, niraparib]
# in matrix with Bliss >5 (Capan-1 (Pancreas)): 2/36
IC50 (Capan-1 (Pancreas); Homo sapiens, 72 h): > 5 µM
# in matrix with Bliss >5 (DU4475 (Breast)): 10/36
IC50 (DU4475 (Breast); Homo sapiens, DU-4475, 72 h): 1.02 µM
# in matrix with Bliss >5 [5]: 6/36
# in matrix with Bliss >5 (HCC1395 (Breast)): 6/36
IC50 (HCC1395 (Breast); Homo sapiens, 72 h): > 5 µM
# in matrix with Bliss >5 (HCC1806 (Breast)): 9/36
IC50 (HCC1806 (Breast); Homo sapiens, 72 h): > 5 µM
# in matrix with Bliss >5 (HCC1937 (Breast)): 15/36
# in matrix with Bliss >5 (IGR-OV1 (Ovary)): 7/36
IC50 (IGR-OV1 (Ovary); Homo sapiens, IGROV-1, 72 h): > 5 µM
# in matrix with Bliss >5 (MX-1 (Breast)): 4/36
# in matrix with Bliss >5 (OVCAR-8 (Ovary)): 9/36
IC50 (OVCAR-8 (Ovary); Homo sapiens, 72 h): > 5 µM
# in matrix with Bliss >5 (SK-OV-3 (Ovary)): 8/36

O=C(c1cc(Cc2n[nH]c(=O)c3ccccc23)ccc1F)N1CCN(C(=O)C2CC2)CC1 [Olaparib, olaparib]
# in matrix with Bliss >5 (Capan-1 (Pancreas)): 4/36
IC50 (Capan-1 (Pancreas); Homo sapiens, 72 h): > 5 µM
# in matrix with Bliss >5 (DU4475 (Breast)): 13/36
IC50 (DU4475 (Breast); Homo sapiens, DU-4475, 72 h): 4.52 µM
# in matrix with Bliss >5 [5]: 5/36
IC50 ([5]; Homo sapiens): > 5 µM
# in matrix with Bliss >5 (HCC1395 (Breast)): 8/36
IC50 (HCC1395 (Breast); Homo sapiens, 72 h): > 5 µM
# in matrix with Bliss >5 (HCC1806 (Breast)): 17/36
IC50 (HCC1806 (Breast); Homo sapiens, 72 h): > 5 µM
# in matrix with Bliss >5 (HCC1937 (Breast)): 23/36
# in matrix with Bliss >5 (IGR-OV1 (Ovary)): 12/36
IC50 (IGR-OV1 (Ovary); Homo sapiens, IGROV-1, 72 h): > 5 µM
# in matrix with Bliss >5 (MX-1 (Breast)): 3/36
IC50 (MX-1 (Breast)): > 5 µM
# in matrix with Bliss >5 (OVCAR-8 (Ovary)): 8/36
IC50 (OVCAR-8 (Ovary); Homo sapiens, 72 h): > 5 µM
# in matrix with Bliss >5 (SK-OV-3 (Ovary)): 10/36
